Assay results from patent EP2769738B1, “Conjugated TLR7 and/or TLR8 and TLR2 polycationic agonists” (Invivogen, priority 2013, dated 2014).

Experiments:
human TLR7 = target: T1, human TLR7 (Homo sapiens, UniProt Q9NYK1); test: HEK-Blue hTLR7 NF-κB/AP-1-inducible SEAP reporter cell assay; assay type: cell-based; conditions: Figure 1; 10 µg/mL to 10 pg/ml, 24 hours, SEAP read as OD at 655 nm
T1 construct: host or cells: HEK293 (ATCC, CRL-1573), HEK-Blue hTLR7
T1 sequence (Q9NYK1 27-1049): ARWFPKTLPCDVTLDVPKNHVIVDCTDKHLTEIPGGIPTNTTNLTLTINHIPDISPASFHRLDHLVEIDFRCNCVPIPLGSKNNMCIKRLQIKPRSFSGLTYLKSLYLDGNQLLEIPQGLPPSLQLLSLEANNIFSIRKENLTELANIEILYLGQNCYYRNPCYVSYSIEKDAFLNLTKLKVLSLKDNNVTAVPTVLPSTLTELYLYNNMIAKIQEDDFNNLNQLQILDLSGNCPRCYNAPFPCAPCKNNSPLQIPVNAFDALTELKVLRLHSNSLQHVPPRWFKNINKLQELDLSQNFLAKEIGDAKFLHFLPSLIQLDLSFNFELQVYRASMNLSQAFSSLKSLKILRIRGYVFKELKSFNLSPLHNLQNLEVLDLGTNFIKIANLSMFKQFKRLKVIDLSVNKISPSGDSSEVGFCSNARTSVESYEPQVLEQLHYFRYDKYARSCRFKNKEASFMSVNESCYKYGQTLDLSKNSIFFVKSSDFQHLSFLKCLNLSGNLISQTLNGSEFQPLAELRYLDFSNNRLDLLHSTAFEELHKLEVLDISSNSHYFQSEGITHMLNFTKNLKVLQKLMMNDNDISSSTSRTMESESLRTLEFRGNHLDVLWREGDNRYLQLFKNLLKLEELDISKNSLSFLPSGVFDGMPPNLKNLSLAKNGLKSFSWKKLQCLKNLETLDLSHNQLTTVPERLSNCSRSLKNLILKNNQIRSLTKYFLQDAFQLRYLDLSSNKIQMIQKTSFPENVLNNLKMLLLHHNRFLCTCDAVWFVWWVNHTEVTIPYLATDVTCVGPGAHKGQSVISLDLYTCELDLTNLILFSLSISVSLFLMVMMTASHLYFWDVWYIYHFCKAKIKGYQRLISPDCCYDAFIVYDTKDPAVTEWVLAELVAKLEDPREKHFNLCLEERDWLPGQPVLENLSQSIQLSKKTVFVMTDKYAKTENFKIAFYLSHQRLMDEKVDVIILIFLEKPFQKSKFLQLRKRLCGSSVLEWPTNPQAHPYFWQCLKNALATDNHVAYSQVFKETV
Excerpt: Assays for detecting TLR7, TLR8 or TLR2 activity are known in the art and include for example cell-based assays using respectively TLR7, TLR8 or TLR2 reporter cell lines (InvivoGen). The reporter cell lines are engineered HEK293 cells, a human embryonic kidney cell line (ATCC, CRL-1573) that stably express either murine TLR7 (HEK-Blue™ mTLR7) or human TLR7 (HEK-Blue™ hTLR7), human TLR8 (HEK-Blue™ hTLR8) or human TLR2 (HEK- Blue™ hTLR2) with an NF-κB-inducible secreted embryonic alkaline phosphatase (SEAP) as the reporter gene.
Cell-based assays were carried out using TLR7 and TLR2 reporter cell lines (InvivoGen). The reporter cell lines are engineered HEK293 cells, a human embryonic kidney cell line (ATCC, CRL-1573) that stably express either murine TLR7 (HEK-Blue™ mTLR7) or human TLR7 (HEK-Blue™ hTLR7) or human TLR2 (HEK- Blue™ hTLR2) with an NF-κB-inducible secreted embryonic alkaline phosphatase (SEAP) as the reporter gene. The SEAP reporter gene is under the control of the NF-κB and AP-1-inducible promoter, which, upon treatment with a corresponding TLR ligand and activation of NF-κB and AP-1, induces the production of SEAP. Detection of SEAP is measured following culturing cells in HEK-Blue™ Detection media (InvivoGen). HEK-Blue™ Detection contains a SEAP substrate that when hydrolysed by SEAP produces a colorimetric change allowing for detection of SEAP as the protein is secreted. […] These assays were carried out using RAW-Blue™ Cells (InvivoGen), derived from RAW 264.7 mouse leukemic monocyte macrophage cell line (ATCC, CRL 2278) stably overexpressing a NF-κB /AP-1 inducible SEAP reporter constructs.
To perform the assay, cells were seeded on 96 well microliter plates at 50,000 or 100,000 cells per well for HEK-Blue™ Cells and RAW-Blue™ Cells respectively, and cultured at 37 °C in the presence of the conjugated compounds The TLR7-TLR2 polyamine molecules were prepared as follows: First, stock solutions of the conjugated compounds of the invention were prepared in ethanol or water to a concentration of 10 mg/ml.
The working dilutions of the conjugated TLR7-TLR2 polyamine agonists made up in water or PBS were directly added to the reporter cell lines at a final concentration ranging from 10 µg/mL to 10 pg/ml and incubated at 37 °C for 24 hours. After 24 hours of incubation, the effect on reporter gene activity was determined by reading the OD at 655 nm using iMark™ Microplate Reader (BIO-RAD).

HEK293 cells = test: Cell transfection with SEAP plasmid, HEK293; assay type: cell-based, human; conditions: Figure 5A; in complex with pVitro14 LGFP SEAP plasmid, 48 hours, SEAP reporter gene expression
Description: The TLR7-TLR2 molecules were tested for their ability as polyamine molecules to transport plasmid DNA (pDNA) into cells. The pVitro14 LGFP SEAP plasmid (InvivoGen) was complexed to TLR7-TLR2 polyamine molecules and to the control cationic lipid transfection agent, LyoVec™ (InvivoGen). The human HEK293 (ATCC, CRL-1573) and mouse B16-F1 melanoma (ATCC, CRL-6323) cell lines were seeded at a density of 50 000 cells/well and 20 000 cells/well respectively, in the absence or presence of different volumes of the plasmid encoding for the SEAP protein in complex with TLR7-TLR2 polyamine molecules for 48 hours at 37°C and 10% CO2. Transfection efficiency was assessed by measuring SEAP reporter gene expression: 20 µl of supernatant was sampled and mixed with 180 µl of QUANTI-Blue™ Detection (InvivoGen). In the presence of alkaline phosphatase SEAP, the color of QUANTI-Blue™ changes from pink to purple/blue. The intensity of the blue hue reflects the activity of SEAP. The levels of SEAP secretion were determined quantitatively by reading the OD at 620-655 nm using a spectrophotometer, iMark™ Microplate Reader (BIO-RAD).

CCCCCCCCCCCCCCCC(=O)OCC(CSC[C@H](N)C(=O)N[C@@H](CCCCNC(=O)CNC(=O)c1ccc(Cn2c(O)nc3c(N)nc(NCCCC)nc32)cc1)C(=O)NCCCNCCCCNCCCN)OC(=O)CCCCCCCCCCCCCCC (stereo partly drawn) [CL475, (6R,9S)-6,23-diamino-9-(4-(2-(4-((6-amino-2-(butylamino)-8-hydroxy-9H-purin-9-yl)methyl)benzamido)acetamido)butyl)-7,10-dioxo-4-thia-8,11,15,20-tetraazatrico sane-1,2-diyl dipalmitate]
ability to activate hTLR7 (human TLR7): activate hTLR7

CCCCCCCCCCCCCCCC(=O)OCC(CSC[C@H](N)C(=O)N[C@@H](COC(=O)c1ccc(Cn2c(O)nc3c(N)nc(NCCCC)nc32)cc1)C(=O)NCCCNCCCCNCCCN)OC(=O)CCCCCCCCCCCCCCC (stereo partly drawn) [CL514, (6R,9S)-6,23-diamino-9-((4-((6-amino-2-(butylamino)-8-hydroxy-9H-purin-9-yl)methyl)benzoyloxy)methyl)-7,10-dioxo-4-thia-8,11,15,20-tetraazatricosane-1,2-diyl dipalmitate]
ability to activate hTLR7 (human TLR7): activate hTLR7 | ability to transfect HEK293 cells (HEK293 cells): transfect HEK293 cells

CCCCCCCCCCCCCCCC(=O)OCC(CSC[C@H](N)C(=O)N[C@@H](CCC(=O)NCCCNCCCCNCCCN)C(=O)Nc1ccc(Cn2c(O)nc3c(N)nc(NCCCC)nc32)cc1)OC(=O)CCCCCCCCCCCCCCC (stereo partly drawn) [CL527, (6R,9S)-6,25-diamino-9-(4-((6-amino-2-(butylamino)-8-hydroxy-9H-purin-9-yl)methyl)phenylcarbamoyl)-7,12-dioxo-4-thia-8,13,17,22-tetraazapentacosane-1,2-diyl dipalmitate]
ability to activate hTLR7 (human TLR7): activate hTLR7 | ability to transfect HEK293 cells (HEK293 cells): transfect HEK293 cells

CCCCCCCCCCCCCCCC(=O)OCC(CSC[C@H](N)C(=O)NCCCC[C@H](NC(=O)CNC(=O)c1ccc(Cn2c(O)nc3c(N)nc(NCCCC)nc32)cc1)C(=O)NCCCNCCCCNCCCN)OC(=O)CCCCCCCCCCCCCCC (stereo partly drawn) [CL487, (6R,13S)-6,27-diamino-13-(2-(4-((6-amino-2-(butylamino)-8-hydroxy-9H-purin-9-yl)methyl)benzamido)acetamido)-7,14-dioxo-4-thia-8,15,19,24-tetraazaheptacosane-1,2-diyl dipalmitate]
ability to activate hTLR7 (human TLR7): activate hTLR7

CCCCCCCCCCCCCCCC(=O)OCC(CSC[C@H](N)C(=O)NCCCNCCCCNCCCNC(=O)CNC(=O)c1ccc(Cn2c(O)nc3c(N)nc(NCCCC)nc32)cc1)OC(=O)CCCCCCCCCCCCCCC (stereo partly drawn) [CL553, (20R)-20-amino-1-(4-((6-amino-2-(butylamino)-8-hydroxy-9H-purin-9-yl)methyl)phenyl)-1,4,19-trioxo-22-thia-2,5,9,14,18-pentaazapentacosane-24,25-diyl dipalmitate]
ability to activate hTLR7 (human TLR7): activate hTLR7 | ability to transfect HEK293 cells (HEK293 cells): transfect HEK293 cells

CCCCCCCCCCCCCCCC(=O)OCC(CSC[C@H](N)C(=O)NCCCC[C@H](NC(=O)c1ccc(Cn2c(O)nc3c(N)nc(NCCCC)nc32)cc1)C(=O)NCCCNCCCCNCCCN)OC(=O)CCCCCCCCCCCCCCC (stereo partly drawn) [CL486, (6R,13S)-6,27-diamino-13-(4-((6-amino-2-(butylamino)-8-hydroxy-9H-purin-9-yl)methyl)benzamido)-7,14-dioxo-4-thia-8,15,19,24-tetraazaheptacosane-1,2-diyl dipalmitate]
ability to activate hTLR7 (human TLR7): activate hTLR7
